Assay results reported in patent publication US20260041093A1, “Ionic Derivatives Of Aromatic Carboxylic Acid For Use As Plant Stimulants, Method For Stimulating Plants And Use Of These Derivatives For Manufacturing Compositions For Stimulating Plants” (FUNDACJA UNIWERSYTETU IM. ADAMA MICKIEWICZA W POZNANIU, priority 2022, published 2026).
Like-named read-outs stand apart in the source and are kept apart here.

How the values were obtained:
powdery mildew fungus [1] = type: in vivo, tomato; settings: 80 mg/L, watered twice; 2 weeks after infection
Procedure: Tomato plants, at the stage of the first pair of developed true leaves, were watered twice with a solution of substance 1-32 at a concentration of 80 mg/L, at a weekly interval. The control was tomato plants watered only with water. […] The suspension was prepared from culture on solid medium. Protection against biotic stress was evaluated by comparing the area of leaves affected by infection.

Brome Mosaic Virus (BMV) = assay: Protection of barley against Brome Mosaic Virus infection by watering (Examples 28 and 29); type: in vivo; settings: 80 mg/L, watered twice; 2 weeks after infection
TMV [2] = assay: Protection of tobacco against TMV infected 3 weeks after the last treatment (Example 27); type: in vivo; settings: infected with TMV 3 weeks after the last treatment
Procedure: They proceeded as in Example 24, using substances 1-4 at concentrations of 10, 40 and 80 mg/L for treatment, with treated and control plants divided into 3 batches and their leaves infected with the virus 1, 2 and 3 weeks after the last treatment, respectively. […] A similar effect occurred with spraying.

TMV [3] = assay: Protection of tobacco against TMV, single spray, comparison with BION (Example 26); type: in vivo, Nicotiana tabacum cv. Xanthi; settings: sprayed once, infected a week later
Procedure: Tobacco plants (Nicotiana tabacum) cv. Xanthi at the stage of three developed leaves were sprayed once with solutions of substance 1-5 or BION™ at concentrations of 10, 40, 80 mg/L. A week later, they were mechanically infected with TMV by rubbing the leaves with a square soaked in a suspension of purified virus, with a concentration of about 2 μg/ml. The level of protection against the effects of biotic stress was evaluated by comparing the number of necrotic spots caused by TMV on the leaves of plants treated with substances 1-5 and BION™ and control plants.
A reduction in the number of necrotic spots indicates protection from the effects of the biotic agent on the plant.

[4] = test system: Pseudomonas syringae pv. Tomato (Pst); settings: watered twice, Pst 10^5, 2 weeks after infection
Procedure: Tobacco plants at the stage of 3 developed leaves were watered twice, at a weekly interval, with a solution of test substances 1-11 at concentrations of 10, 40, 80 mg/L. The control was tobacco plants watered with water only. One week after the second treatment, a suspension of Pst bacteria at a concentration of 10^5 was spotted into the leaves using an insulin syringe (without a needle). The suspension was prepared from a two-day culture of Pst on solid medium. Protection against biotic stress was evaluated by the proliferation of bacteria in the leaves at the insertion site and the formation of a necrotic spot, compared to the control.
We proceeded as in Example 30, with the effectiveness of protection against biotic stress tested against bacterial cell concentrations raised to about 10^6.

powdery mildew fungus [5] = assay: Protection of tomato against powdery mildew by spraying (Example 35); type: in vivo, Lycopersicon Esculentum Mill tomato; settings: 40 mg/l, sprayed twice; 2 weeks after pathogen inoculation
Procedure: […] The control was tomato plants watered only with water. […] The suspension was prepared from culture on solid medium. Protection against biotic stress was evaluated by comparing the area of leaves affected by infection.
Proceeded in the way as described in Example 34, with the difference that plants were sprayed and not watered.

## C[N+](C)(C)CCO.O=C([O-])c1cc(Br)cc(Br)c1O
Powdery mildew fungus [1]
  % reduction in necrotic spots compared to control: 72%
Brome Mosaic Virus (BMV)
  % reduction in necrotic spots compared to control: 38%

## C[N+](C)(C)CCO.O=C([O-])c1cc(F)cc(F)c1O
Powdery mildew fungus [1]
  % reduction in necrotic spots compared to control: 70%
Brome Mosaic Virus (BMV)
  % reduction in necrotic spots compared to control: 27%

## C[N+](C)(C)CCO.O=C([O-])c1cc(I)cc(I)c1O
Powdery mildew fungus [1]
  % reduction in necrotic spots compared to control: 78%
Brome Mosaic Virus (BMV)
  % reduction in necrotic spots compared to control: 46%

## 2-bromoethyl(trimethyl)ammonium 3-chlorosalicylate
Powdery mildew fungus [1]
  % reduction in necrotic spots compared to control: 54%
Brome Mosaic Virus (BMV)
  % reduction in necrotic spots compared to control: 95%

## 2-chloroethyl(trimethyl)ammonium 3-chlorosalicylate
Powdery mildew fungus [1]
  % reduction in necrotic spots compared to control: 57%
Brome Mosaic Virus (BMV)
  % reduction in necrotic spots compared to control: 36%

## 2-ethoxyethyl(trimethyl)ammonium 3-chlorosalicylate
Powdery mildew fungus [1]
  % reduction in necrotic spots compared to control: 55%
TMV [2]; 10 mg/L
  % reduction in necrotic spots compared to control: 26%
TMV [2]; 40 mg/L
  % reduction in necrotic spots compared to control: 26%
TMV [2]; 80 mg/L
  % reduction in necrotic spots compared to control: 30%

## 2-fluoroethyl(trimethyl)ammonium 3-chlorosalicylate
Powdery mildew fungus [1]
  % reduction in necrotic spots compared to control: 36%
Brome Mosaic Virus (BMV)
  % reduction in necrotic spots compared to control: 56%

## 2-hydroxyethyl(tributyl)ammonium 3-chlorosalicylate
Powdery mildew fungus [1]
  % reduction in necrotic spots compared to control: 66%
TMV [3]; 10 mg/L
  % reduction in necrotic spots compared to control: 26%
TMV [3]; 40 mg/L
  % reduction in necrotic spots compared to control: 26%
TMV [3]; 80 mg/L
  % reduction in necrotic spots compared to control: 30%

## 2-hydroxyethyl(tridecyl)ammonium 3-chlorosalicylate
Powdery mildew fungus [1]
  % reduction in necrotic spots compared to control: 64%
TMV [3]; 10 mg/L
  % reduction in necrotic spots compared to control: 25%
TMV [3]; 40 mg/L
  % reduction in necrotic spots compared to control: 46%
TMV [3]; 80 mg/L
  % reduction in necrotic spots compared to control: 65%

## 2-hydroxyethyl(tridodecyl)ammonium 3-chlorosalicylate
Powdery mildew fungus [1]
  % reduction in necrotic spots compared to control: 47%
TMV [3]; 10 mg/L
  % reduction in necrotic spots compared to control: 59%
TMV [3]; 40 mg/L
  % reduction in necrotic spots compared to control: 64%
TMV [3]; 80 mg/L
  % reduction in necrotic spots compared to control: 89%

## 2-hydroxyethyl(triethyl)ammonium 3-chlorosalicylate
Powdery mildew fungus [1]
  % reduction in necrotic spots compared to control: 58%
TMV [3]; 10 mg/L
  % reduction in necrotic spots compared to control: 15%
TMV [3]; 40 mg/L
  % reduction in necrotic spots compared to control: 26%
TMV [3]; 80 mg/L
  % reduction in necrotic spots compared to control: 37%

## 2-iodoethyl(trimethyl)ammonium 3-chlorosalicylate
Powdery mildew fungus [1]
  % reduction in necrotic spots compared to control: 47%
Brome Mosaic Virus (BMV)
  % reduction in necrotic spots compared to control: 64%

## 2-methoxyethyl(trimethyl)ammonium 3-chlorosalicylate
Powdery mildew fungus [1]
  % reduction in necrotic spots compared to control: 67%
TMV [2]; 10 mg/L
  % reduction in necrotic spots compared to control: 15%
TMV [2]; 40 mg/L
  % reduction in necrotic spots compared to control: 26%
TMV [2]; 80 mg/L
  % reduction in necrotic spots compared to control: 37%

## CC(=O)Oc1c(Cl)cccc1C(=O)[O-].C[N+](C)(C)CCO [choline 2-acetoxy-3-chlorobenzoate]
Powdery mildew fungus [1]
  % reduction in necrotic spots compared to control: 45%
[4]; 10 mg/L
  % reduction in necrotic spots compared to control: >10%
[4]; 40 mg/L
  % reduction in necrotic spots compared to control: 28%
[4]; 80 mg/L
  % reduction in necrotic spots compared to control: 35%

## CC(=O)Oc1ccccc1C(=O)[O-].C[N+](C)(C)CCO [choline 2-acetoxybenzoate]
Powdery mildew fungus [1]
  % reduction in necrotic spots compared to control: 52%
[4]; 10 mg/L
  % reduction in necrotic spots compared to control: 25%
[4]; 40 mg/L
  % reduction in necrotic spots compared to control: 29%
[4]; 80 mg/L
  % reduction in necrotic spots compared to control: 69%

## CCOc1c(Cl)cccc1C(=O)[O-].C[N+](C)(C)CCO [choline 2-ethoxy-3-chlorobenzoate]
Powdery mildew fungus [1]
  % reduction in necrotic spots compared to control: 43%
[4]; 10 mg/L
  % reduction in necrotic spots compared to control: 24%
[4]; 40 mg/L
  % reduction in necrotic spots compared to control: 33%
[4]; 80 mg/L
  % reduction in necrotic spots compared to control: 39%

## CCOc1ccccc1C(=O)[O-].C[N+](C)(C)CCO [choline 2-ethoxybenzoate]
Powdery mildew fungus [1]
  % reduction in necrotic spots compared to control: 43%
[4]; 10 mg/L
  % reduction in necrotic spots compared to control: 56%
[4]; 40 mg/L
  % reduction in necrotic spots compared to control: 60%
[4]; 80 mg/L
  % reduction in necrotic spots compared to control: 82%

## COc1c(Cl)cccc1C(=O)[O-].C[N+](C)(C)CCO [choline 2-methoxy-3-chlorobenzoate]
Powdery mildew fungus [1]
  % reduction in necrotic spots compared to control: 49%
[4]; 10 mg/L
  % reduction in necrotic spots compared to control: >10%
[4]; 40 mg/L
  % reduction in necrotic spots compared to control: 25%
[4]; 80 mg/L
  % reduction in necrotic spots compared to control: 39%

## COc1ccccc1C(=O)[O-].C[N+](C)(C)CCO [choline 2-methoxybenzoate]
Powdery mildew fungus [1]
  % reduction in necrotic spots compared to control: 44%
[4]; 10 mg/L
  % reduction in necrotic spots compared to control: 54%
[4]; 40 mg/L
  % reduction in necrotic spots compared to control: 68%
[4]; 80 mg/L
  % reduction in necrotic spots compared to control: 67%

## C[N+](C)(C)CCO.O=C([O-])c1cccc(Br)c1O [choline 3-bromosalicylate]
Powdery mildew fungus [1]
  % reduction in necrotic spots compared to control: 72%
Brome Mosaic Virus (BMV)
  % reduction in necrotic spots compared to control: 21%

## C[N+](C)(C)CCO.O=C([O-])c1c(Br)ccc(Cl)c1O [choline 3-chloro-6-bromosalicylate]
Powdery mildew fungus [5]
  Reduction in necrotic spots (white patches) compared to control: 49%
[4]; 10 mg/L
  % reduction in necrotic spots compared to control: 24%
[4]; 40 mg/L
  % reduction in necrotic spots compared to control: 29%
[4]; 80 mg/L
  % reduction in necrotic spots compared to control: 40%

## C[N+](C)(C)CCO.O=C([O-])c1c(F)ccc(Cl)c1O [choline 3-chloro-6-fluorosalicylate]
Powdery mildew fungus [5]
  Reduction in necrotic spots (white patches) compared to control: 45%
[4]; 10 mg/L
  % reduction in necrotic spots compared to control: 19%
[4]; 40 mg/L
  % reduction in necrotic spots compared to control: 28%
[4]; 80 mg/L
  % reduction in necrotic spots compared to control: 47%

## C[N+](C)(C)CCO.O=C([O-])c1c(I)ccc(Cl)c1O [choline 3-chloro-6-iodosalicylate]
Powdery mildew fungus [5]
  Reduction in necrotic spots (white patches) compared to control: 47%

## C[N+](C)(C)CCO.O=C([O-])c1cccc(F)c1O [choline 3-fluorosalicylate]
Powdery mildew fungus [1]
  % reduction in necrotic spots compared to control: 52%
Brome Mosaic Virus (BMV)
  % reduction in necrotic spots compared to control: 56%

## C[N+](C)(C)CCO.O=C([O-])c1cccc(I)c1O [choline 3-iodosalicylate]
Powdery mildew fungus [1]
  % reduction in necrotic spots compared to control: 69%
Brome Mosaic Virus (BMV)
  % reduction in necrotic spots compared to control: 77%

## C[N+](C)(C)CCO.O=C([O-])c1cc(Br)ccc1O [choline 5-bromosalicylate]
Powdery mildew fungus [1]
  % reduction in necrotic spots compared to control: 79%
Brome Mosaic Virus (BMV)
  % reduction in necrotic spots compared to control: 69%

## C[N+](C)(C)CCO.O=C([O-])c1cc(F)ccc1O [choline 5-fluorosalicylate]
Powdery mildew fungus [1]
  % reduction in necrotic spots compared to control: 54%
Brome Mosaic Virus (BMV)
  % reduction in necrotic spots compared to control: 88%

## C[N+](C)(C)CCO.O=C([O-])c1cc(I)ccc1O [choline 5-iodosalicylate]
Powdery mildew fungus [1]
  % reduction in necrotic spots compared to control: 65%
Brome Mosaic Virus (BMV)
  % reduction in necrotic spots compared to control: 35%

## ethyl(trimethyl)ammonium 3-chlorosalicylate
Powdery mildew fungus [1]
  % reduction in necrotic spots compared to control: 63%
TMV [2]; 10 mg/L
  % reduction in necrotic spots compared to control: 25%
TMV [2]; 40 mg/L
  % reduction in necrotic spots compared to control: 46%
TMV [2]; 80 mg/L
  % reduction in necrotic spots compared to control: 65%
